According to ChEMBL document CHEMBL1134261, “Synthesis of anticonvulsive AMPA antagonists: 4-oxo-10-substituted-imidaz” (Bioorg Med Chem Lett, 2001):
pIC50: −log10 of the molar value.

How the values were obtained:
Mus musculus [1] = experiment: In vivo effective dose required to protect 6 male CD1 mice against tonic convulsions following iv administration for a pretreatment time of 60 min; assay type: functional
Mus musculus [2] = experiment: In vivo effective dose required to protect 6 male CD1 mice against tonic convulsions following iv administration for a pretreatment time of 30 min; assay type: functional
Mus musculus [3] = experiment: In vivo effective dose required to protect 6 male CD1 mice against tonic convulsions following iv administration for a pretreatment time of 5 min; assay type: functional
Xenopus sp. = organism: Xenopus sp.; experiment: Inhibition of currents generated by 50 uM kainate in Xenopus oocytes injected with rat brain mRNA; assay type: functional, organism-based, frog
Glutamate NMDA receptor = experiment: Displacement of [3H]DCKA from glycine NMDA receptor of rat cortical membranes; assay type: cell membranes, Membrane
[4] = target: Glutamate receptor ionotropic, AMPA (Rattus norvegicus, UniProt P19490+P19491+P19492+P19493); experiment: Displacement of [3H]AMPA from Ionotropic glutamate receptor AMPA of rat cortical membranes; assay type: cell membranes, Membrane
Mus musculus [5] = experiment: In vivo effective dose required to protect 6 male CD1 mice against tonic convulsions following ip administration for a pretreatment time of 30 min; assay type: functional

Structure (SMILES): O=c1[nH]c2cc(-n3ccnc3)c([N+](=O)[O-])cc2[nH]c1=O [YM-90K]
- ED50 (Mus musculus [1]): 40 mg/kg
- ED50 (Mus musculus [2]): 24 mg/kg
- ED50 (Mus musculus [3]): 6.2 mg/kg
- pIC50 (Xenopus sp.): 6.59

Structure (SMILES): O=C(O)c1cn2c3c(nc(O)c2n1)-c1ccccc1C3N1CC=CC1=O (configuration not stated)
- pIC50 (Glutamate NMDA receptor): 6.74
- ED50 (Mus musculus [3]): 7.7 mg/kg
- pIC50 [4]: 7.64
- ED50 (Mus musculus [5]): 20 mg/kg

Structure (SMILES): O=C(Nc1ccccc1)NC1c2ccccc2-c2nc(O)c3nc(C(=O)O)cn3c21 (configuration not stated)
- pIC50 (Glutamate NMDA receptor): 7.74
- pIC50 [4]: 6.80
- ED50 (Mus musculus [5]): 80 mg/kg
- pIC50 (Xenopus sp.): 7.52

Structure (SMILES): O=c1[nH]c2cc(C(F)(F)F)c(N3CCOCC3)cc2n(CP(=O)(O)O)c1=O [FANAPANEL]
- pIC50 (Glutamate NMDA receptor): < 5.00
- ED50 (Mus musculus [3]): 36 mg/kg
- ED50 (Mus musculus [5]): 36 mg/kg
- pIC50 (Xenopus sp.): 7.51

Structure (SMILES): O=Nc1c2n3cc(C(=O)O)[nH]c3c(O)nc-2c2ccccc12
- pIC50 (Glutamate NMDA receptor): 6.23
- pIC50 [4]: 6.78
- ED50 (Mus musculus [5]): > 80 mg/kg
- pIC50 (Xenopus sp.): 6.89

Structure (SMILES): O=C(O)c1cn2c3c(nc(O)c2n1)-c1ccccc1C3
- pIC50 (Xenopus sp.): 7.54

Structure (SMILES): O=C(O)c1cn2c3c(nc(O)c2n1)-c1ccccc1C3=O
- pIC50 (Glutamate NMDA receptor): 6.37
- pIC50 [4]: 6.24
- pIC50 (Xenopus sp.): 6.49

Structure (SMILES): CC1(CCCCC(=O)O)c2ccccc2-c2nc(O)c3nc(C(=O)O)cn3c21 (configuration not stated)
- ED50 (Mus musculus [1]): 15 mg/kg
- pIC50 (Glutamate NMDA receptor): 6.87
- ED50 (Mus musculus [3]): 9.5 mg/kg
- pIC50 [4]: 6.62
- ED50 (Mus musculus [5]): 10 mg/kg
- pIC50 (Xenopus sp.): 7.66

Structure (SMILES): O=C(O)CCC(=O)NC1c2ccccc2-c2nc(O)c3nc(C(=O)O)cn3c21 (configuration not stated)
- ED50 (Mus musculus [1]): 3 mg/kg
- pIC50 (Glutamate NMDA receptor): 6.64
- ED50 (Mus musculus [2]): 1.7 mg/kg
- ED50 (Mus musculus [3]): 1.7 mg/kg
- pIC50 [4]: 7.46
- ED50 (Mus musculus [5]): 2.5 mg/kg
- pIC50 (Xenopus sp.): 8.22

Structure (SMILES): O=C(O)[C@@H]1C[C@H]2C[C@@H](CCc3nn[nH]n3)CC[C@H]2CN1 [TEZAMPANEL ANHYDROUS]
- pIC50 (Xenopus sp.): 6.63

Structure (SMILES): O=C(O)c1cn2c3c(nc(O)c2n1)-c1ccccc1C3n1cccc1 (configuration not stated)
- ED50 (Mus musculus [1]): 17 mg/kg
- pIC50 (Glutamate NMDA receptor): 7.49
- ED50 (Mus musculus [2]): 15 mg/kg
- ED50 (Mus musculus [3]): 10 mg/kg
- pIC50 [4]: 7.26
- ED50 (Mus musculus [5]): 26 mg/kg
- pIC50 (Xenopus sp.): 7.22

Structure (SMILES): Oc1nc2c(n3ccnc13)Cc1ccccc1-2
- pIC50 (Xenopus sp.): 5.74

Structure (SMILES): O=C(O)CCCO/N=C1\c2ccccc2-c2nc(O)c3nc(C(=O)O)cn3c21
- pIC50 (Glutamate NMDA receptor): 5.85
- pIC50 [4]: 7.36
- ED50 (Mus musculus [5]): > 80 mg/kg
- pIC50 (Xenopus sp.): 8.30

Structure (SMILES): NC1c2ccccc2-c2nc(O)c3nc(C(=O)O)cn3c21 (configuration not stated)
- ED50 (Mus musculus [1]): > 40 mg/kg
- pIC50 (Glutamate NMDA receptor): 6.80
- ED50 (Mus musculus [2]): 25 mg/kg
- ED50 (Mus musculus [3]): 7 mg/kg
- pIC50 [4]: 7.03
- ED50 (Mus musculus [5]): 19 mg/kg
- pIC50 (Xenopus sp.): 6.89
